Data reported in ChEMBL document CHEMBL1135787, “Synthesis of new molecular probes for investigation of steroid biosynthesis induced by selective interaction with peripheral type benzodiazepine receptors (PBR)” (J Med Chem, 2002).
pKi: −log10 of the molar value.

Tests used:
Translocator protein [1] = target: T1, Translocator protein (Rattus norvegicus, UniProt P16257); test: Inhibition of [3H]PK11195 binding to Peripheral type benzodiazepine receptor (PBR) in rat cortex homogenate by 50%
Translocator protein [2] = target: T1, Translocator protein; test: Inhibition of [3H]PK11195 binding to mitochondrial rat testis Peripheral type benzodiazepine receptor (PBR)
Translocator protein [3] = target: T1, Translocator protein; test: Inhibition of [3H]Ro-5-4864 binding to mitochondrial rat testis Peripheral type benzodiazepine receptor (PBR)
[4] = Stimulatory effect on progesterone biosynthesis in MA10 leydig cells; format: functional, Mus musculus

T1 sequence (P16257 whole entry, looked up): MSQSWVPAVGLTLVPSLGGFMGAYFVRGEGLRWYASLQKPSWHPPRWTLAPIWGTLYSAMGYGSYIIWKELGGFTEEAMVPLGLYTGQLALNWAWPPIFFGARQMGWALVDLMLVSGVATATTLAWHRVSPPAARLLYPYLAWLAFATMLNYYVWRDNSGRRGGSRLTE

Row | SMILES | pKi (Translocator protein [1]) | pKi (Translocator protein [2]) | pKi (Translocator protein [3]) | Progesterone production [4]
1 | CCN(CC)C(=O)OC1=C(c2cccc(C)c2)Oc2ccccc2-n2cccc21 | 8.92 |  |  | 
2 | CC(=O)OC1=C(c2cccc(C)c2)Oc2ccccc2-n2cccc21 | 8.60 |  |  | 
3 | CCN(CC)C(=O)OC1=C(c2cccs2)Oc2cccnc2-n2cccc21 | 9.64 |  |  | 
4 | CCN(CC)C(=O)OC1=C(c2ccccc2)Cc2ccccc2-n2cccc21 | 8.24 |  |  | 
5 | CCN(CC)C(=O)OC1=C(c2cccs2)Oc2ccccc2-n2cccc21 | 7.94 |  |  | 
6 | CCNC(=O)OC1=C(c2ccccc2)Oc2ccccc2-n2cccc21 | 9.96 | 9.70 | 10.00 | 3.3 ng 2hr-1 (10e5*cells)-1
7 | CCCN(C)C(=O)OC1=C(c2ccccc2)Oc2ccccc2-n2cccc21 | 9.16 |  |  | 
8 | CC(=O)OC1=C(c2ccc(C)cc2)Oc2cccnc2-n2cccc21 | 7.87 |  |  | 
9 | CCCNC(=O)OC1=C(c2ccccc2)Oc2ccccc2-n2cccc21 | 9.04 |  |  | 
10 | CCN(CC)C(=O)OC1=C(c2cccc(C)c2)Oc2cccnc2-n2cccc21 | 9.25 |  |  | 
11 | Cc1ccc(C2=C(OC(=O)N(C)C)c3cccn3-c3ncccc3O2)cc1 | 9.36 |  |  | 
12 | CN1CCN(C(=O)OC2=C(c3ccccc3)Oc3ccccc3-n3cccc32)CC1 | 8.14 | 7.54 | 7.82 | 3.8 ng 2hr-1 (10e5*cells)-1
13 | CCCCN(C)C(=O)OC1=C(c2ccccc2)Oc2ccccc2-n2cccc21 | 9.04 |  |  | 
14 | CCN(CC)C(=O)OC1=C(c2cc(F)cc(F)c2)Oc2ccccc2-n2cccc21 | 8.90 |  |  | 
15 | CCNC(=O)OC1=C(c2ccc(C)cc2)Oc2ccccc2-n2cccc21 | 9.17 |  |  | 
16 | CCN(CC)C(=O)OC1=C(c2ccccc2)Oc2cccnc2-n2cccc21 | 8.75 | 7.96 | 7.66 | 3.5 ng 2hr-1 (10e5*cells)-1
17 | CCC(C)N(C)C(=O)c1cc2ccccc2c(-c2ccccc2Cl)n1 (configuration not stated) [PK-11195] |  |  |  | 3.4 ng 2hr-1 (10e5*cells)-1
18 | O=C(OC1=C(c2ccccc2)Oc2ccccc2-n2cccc21)N1CCC1 | 8.22 | 8.22 | 8.37 | 3.5 ng 2hr-1 (10e5*cells)-1
19 | CCNC(=O)OC1=C(c2ccccc2)Oc2c(Cl)cccc2-n2cccc21 | 9.74 |  |  | 
20 | O=C1CN=C(c2ccccc2Cl)c2cc([N+](=O)[O-])ccc2N1 [CLONAZEPAM] |  |  |  | 2.3 ng 2hr-1 (10e5*cells)-1
21 | CCN(C)C(=O)OC1=C(c2ccccc2)Oc2ccccc2-n2cccc21 | 9.11 |  |  | 
22 | O=C(NC1CC1)OC1=C(c2ccccc2)Oc2ccccc2-n2cccc21 | 8.66 | 9.51 | 9.33 | 3.5 ng 2hr-1 (10e5*cells)-1
